# Results: BindingDB's records for doi:10.1016/j.chembiol.2004.02.012 (Triad Therapeutics, 2004)
# Legend:
# Assay in all cases: Steady-State Inhibition Assay
# Settings in all cases: pH 7.4
# [1] = molecular target: T1, 1-deoxy-D-xylulose 5-phosphate reductoisomerase (Escherichia coli (strain K12), UniProt P45568)
# T1 sequence (P45568 whole entry): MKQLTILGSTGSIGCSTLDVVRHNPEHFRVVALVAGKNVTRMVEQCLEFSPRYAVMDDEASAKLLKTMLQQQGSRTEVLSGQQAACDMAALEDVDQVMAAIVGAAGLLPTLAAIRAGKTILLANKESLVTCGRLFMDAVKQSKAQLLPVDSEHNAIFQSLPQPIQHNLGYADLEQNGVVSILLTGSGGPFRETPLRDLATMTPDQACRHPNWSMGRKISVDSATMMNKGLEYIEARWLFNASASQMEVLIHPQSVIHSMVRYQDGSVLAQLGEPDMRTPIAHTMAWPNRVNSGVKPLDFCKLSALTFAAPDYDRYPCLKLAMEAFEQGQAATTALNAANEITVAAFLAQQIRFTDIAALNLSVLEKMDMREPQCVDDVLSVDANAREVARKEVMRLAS
# Text: (§1) All reactions were monitored spectrophotometrically at 340 nm by using initial rates from the first 5% of reaction.
# [2] = molecular target: 4-hydroxy-tetrahydrodipicolinate reductase (Escherichia coli (strain K12), UniProt P04036)
# Text: as §1
# [3] = molecular target: T2, Quinone-dependent D-lactate dehydrogenase (Escherichia coli (strain K12), UniProt P06149)
# T2 sequence (P06149 whole entry): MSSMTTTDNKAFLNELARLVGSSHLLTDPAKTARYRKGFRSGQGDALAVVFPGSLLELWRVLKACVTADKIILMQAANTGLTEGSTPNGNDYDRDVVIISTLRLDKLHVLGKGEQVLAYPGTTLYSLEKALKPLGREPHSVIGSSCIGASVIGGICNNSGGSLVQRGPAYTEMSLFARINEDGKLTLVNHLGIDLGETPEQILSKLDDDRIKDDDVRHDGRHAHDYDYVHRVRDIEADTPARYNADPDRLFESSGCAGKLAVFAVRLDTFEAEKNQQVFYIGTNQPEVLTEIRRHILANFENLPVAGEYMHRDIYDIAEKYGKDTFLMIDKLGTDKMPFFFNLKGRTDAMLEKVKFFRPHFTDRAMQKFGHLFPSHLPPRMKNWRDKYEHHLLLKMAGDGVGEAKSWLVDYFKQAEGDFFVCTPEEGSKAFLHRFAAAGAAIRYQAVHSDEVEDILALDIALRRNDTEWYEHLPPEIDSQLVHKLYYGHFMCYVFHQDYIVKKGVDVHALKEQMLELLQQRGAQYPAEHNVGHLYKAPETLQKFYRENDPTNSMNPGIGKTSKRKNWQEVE
# Text: as §1
# Sequence of 4-hydroxy-tetrahydrodipicolinate reductase (P04036 whole entry): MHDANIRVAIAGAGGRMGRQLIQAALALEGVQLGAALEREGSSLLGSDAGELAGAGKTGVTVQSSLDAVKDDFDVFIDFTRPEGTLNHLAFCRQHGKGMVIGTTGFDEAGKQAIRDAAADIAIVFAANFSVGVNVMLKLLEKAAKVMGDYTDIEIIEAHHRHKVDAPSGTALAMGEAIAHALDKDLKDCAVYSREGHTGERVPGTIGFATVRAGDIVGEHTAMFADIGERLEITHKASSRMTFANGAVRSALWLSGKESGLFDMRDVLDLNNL
Ki [1] [µM],Ki [2] [nM],Ki [3] [µM],SMILES
0.202,> 25000,12,"Cc1ccc(Oc2ccc(NC(=O)CN3C(=O)/C(=C/c4ccc(O)c(O)c4)SC3=S)cc2)cc1 [Bi-ligand, 3]"
10,> 50000,0.042,"O=C(CCCCN1C(=O)/C(=C/c2ccc(O)c(O)c2)SC1=S)NCc1ccc(Cl)c(Cl)c1 [Bi-ligand, 2]"
> 50,26,55,"O=C(O)CN1C(=O)/C(=C/c2ccc(O)c(O)c2)SC1=S [Bi-ligand, 1]"
7.9,100,0.62,"O=C(CN1C(=O)/C(=C/c2ccc(O)c(O)c2)SC1=S)NCCSc1cc(C(=O)O)nc(C(=O)O)c1 [Bi-ligand, 4]"
